The record followed here is US7232809B2, “Mitochondrially targeted antioxidants” (Antipodean Pharmaceuticals, Inc., priority 1997, dated 2007).

Data set [1] has as its system rat liver mitochondria.
Data set [2] concerns rat liver mitochondria. Put plainly: Reduction of mitoquinone by intact mitochondria (A275). It counts as biochemical. How it is done:
Rat liver mitochondria (100 μg/ml) were incubated in 120 mM KCl, 10 mM HEPES, 1 mM EGTA, pH 7.2 at 20° C. and A275 monitored. In panel A rotenone and succinate (5 mM) were present and mitoquinone (50 μM) was added where indicated. This experiment was repeated in the presence of malonate (20 mM) or FCCP ([…]). In panel B glutamate and malate (5 mM of each) were present from the start and mitoquinone (50 μM) was added where indicated. This experiment was repeated in the presence of FCCP or with rotenone and FCCP.

In data set [3] the target is T1, beef heart mitochondrial membranes, Complex III (Bos taurus, UniProt P00157+P13272).
T1 construct: from tissue; host or cells: beef heart mitochondrial membranes
Put plainly: Oxidation of mitoquinol by beef heart mitochondrial membranes (Complex III) and reduction of cytochrome c. In kind it is biochemical.

Data set [4] in a line: Stability of the quinol form in air. In kind it is physicochemical. How it is done: The quinone was reduced to the quinol by taking a mixture of crude quinone and quinol (73 mg, ca. 3:1 by 1H NMR) in methanol (1 mL) was added NaBH4 (21 mg, 0.55 mmol). The mixture was stirred slowly under an argon atmosphere for 10 min. Excess NABH4 was quenched with 5% HBr (0.2 mL) and the mixture extracted with CH2Cl2. The organic extract was washed with H2O (3×5 mL). Solvent was removed under reduced pressure, giving a mixture of quinone and quinol (ca 1:5 by ^1H NMR) as a pale yellow solid (55 mg). For routine preparation of the quinol form the ethanolic solution, dissolve in 5 vols of water, (=1 ml) add a pinch of NaBH4 leave on ice in the dark for 5 min, then extract 3×0.5 ml dichloromethane, Wash with water/HCl etc blow off in nitrogen, dissolve in same vol of etoh and take spectrum and store at −80 under argon. Yield about 70–80%. […] Collect the upper organic phase and evaporate to dryness under a stream of N2 and dissolve in 1 ml ethanol acidified to pH 2.

The test system of data set [5] is rat liver mitochondria. Put plainly: Toxicity of mitoquinol to isolated mitochondria (membrane potential, respiration rate). How it is done:
In A rat liver mitochondria energised with succinate were incubated with various concentrations of mitoquinol and the membrane potential determined as a percentage of control incubations. In B the respiration rate of succinate energised mitochondria under state 4 (black), state 3 (white) and uncoupled (stippled) conditions, as a percentage of control incubations.
The next assays were to determine the toxicity of these compounds to mitochondria and cells. To determine the toxicity to isolated mitochondria the effect on membrane potential and respiration rate were measured (FIG. 16).

Data set [6] concerns rat liver mitochondria. Put plainly: Uptake of radiolabelled mitoquinol by energised mitochondria. It counts as in vitro ADME. As to conditions: tritiated compound, reversed by FCCP. As for the experimental part: The next step was to see if mitoquinol was accumulated by energised mitochondria. To do this a tritiated version of the compound was made, incubated with energised mitochondria and the amount taken up into the mitochondria determined.

A further data set deals with ferricytochrome c (Homo sapiens, UniProt P99999). Put plainly: Reactions of mitoquinone in the absence of mitochondrial membranes. In kind it is biochemical. As for the experimental part:
FIGS. […] In panel A rotenone and antimycin were present and for the t=0 scan, then succinate (5 mM) was added and scans repeated at 5 minute intervals as indicated. In panel B A275 was monitored in the presence of rotenone and antimycin and then mitoquinone (50 μM) was added, followed by succinate (5 mM) and malonate (20 mM) where indicated. In Panel C rotenone, ferricytochrome c (50 μM) and malonate (20 mM) were present, A275 was monitored and mitoquinol (50 μM) and myxathiazol (10 μM) were added where indicated. In panel D A550 was monitored and the experiment in Panel C was repeated in the presence of KCN. Addition of myxathiazol inhabited this rate by about 60–70%.

The test system of data set [7] is pentane extracted beef heart mitochondria. Put plainly: Reactions with pentane-extracted beef heart mitochondria. In kind it is biochemical. As for the experimental part: Pentane extracted beef heart mitochondria (100 μg protein/ml) were suspended in 50 mM sodium phosphate, pH 7.2 at 20° C. In Panel A NADH (125 μM) was added and A340 was monitored and ubiquinone-1 (UQ-1; 50 μM added where indicated. This was repeated in Panel b, except that mitoubiquinone (50 μM) was added. In Panel C pentane extracted mitochondria were incubated with mitoquinone (50 μM), A275 was monitored and succinate (5 mM) and malonate (20 mM) added where indicated. In Panel D pentane-extracted mitochondria were incubated with NADH (125 μM), ferricytochrome c (50 μM) and A550 was monitored and mitoquinone (50 μM) was added where indicated. Addition of myxathiazol inhibited the rate of reduction by about 60–70%;
Mitoquinone/ol may be picking up and donating electrons directly from the active sites of the respiratory complexes, or it could be equilibrating with the endogenous mitochondrial ubiquinone pool. To address this question the endogenous ubiquinone pool was removed from beef heart mitochondria by pentane extraction.

For data set [8], the target named is T2, beef heart mitochondrial membranes, Complex II (Bos taurus, UniProt P35720+Q3T189+Q95123).
T2 construct: from tissue; host or cells: beef heart mitochondrial membranes
The data set is described as follows: Reduction of mitoquinone by beef heart mitochondrial membranes with succinate (Complex II). In kind it is biochemical. How it is done:
FIGS. 12A to 12D show reactions of [10-(6′-ubiquinonyl)decyltriphenylphosphonium bromide] (“mitoquinone”) and the reduced form of the compound (“mitoquinol”) with mitochondrial membranes. Beef heart mitochondrial membranes (20 μg/ml) were suspended in 50 mM sodium phosphate, pH 7.2 at 20° C. In panel A rotenone and antimycin were present and for the t=0 scan, then succinate (5 mM) was added and scans repeated at 5 minute intervals as indicated. In panel B A275 was monitored in the presence of rotenone and antimycin and then mitoquinone (50 μM) was added, followed by succinate (5 mM) and malonate (20 mM) where indicated. In Panel C rotenone, ferricytochrome c (50 μM) and malonate (20 mM) were present, A275 was monitored and mitoquinol (50 μM) and myxathiazol (10 μM) were added where indicated. In panel D A550 was monitored and the experiment in Panel C was repeated in the presence of KCN. Addition of myxathiazol inhabited this rate by about 60–70%.
To determine whether the mitochondrial respiratory chain could also oxidise or reduce the compound mitoquinone was incubated with beef heart mitochondrial membranes (FIG. 12). In panel A the spectrum of fully oxidised mitoquinone in the presence of antimycin inhibited membranes is shown (t=0; FIG. 12A). Addition of succinate led to the gradual reduction of the […] as measured by repeating the measurement every five minutes and showing that the peak at 275 nm gradually disappeared, the presence of antimycin prevented the oxidation of the quinol by mitochondrial complex III.
The reduction of mitoquinone can be followed continuously at A275 nm (FIG. 12B). […] The rate of reduction of mitoquinone was 51±9.9 nmol/min/mg protein, which compares with the rate of reduction of cytochrome c by succinate in the presence of KCN of 359 nmol/min/mg. Allowing for the 2 electrons required for mitoquinone reduction compared with 1 for cytochrome c the rate of electron flux into the mitoquinone pool is of similar order to the electron flux through the respiratory chain.

T2 sequence (P35720 30-169): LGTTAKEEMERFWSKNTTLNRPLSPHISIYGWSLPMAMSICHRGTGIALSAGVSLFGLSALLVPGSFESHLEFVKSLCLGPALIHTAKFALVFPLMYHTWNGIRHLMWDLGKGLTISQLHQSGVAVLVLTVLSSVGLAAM
T2 sequence (Q95123 56-158): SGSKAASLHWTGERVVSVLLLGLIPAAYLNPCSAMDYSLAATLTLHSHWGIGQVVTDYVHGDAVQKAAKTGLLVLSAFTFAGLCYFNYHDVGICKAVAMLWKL
T2 sequence (Q3T189 29-280): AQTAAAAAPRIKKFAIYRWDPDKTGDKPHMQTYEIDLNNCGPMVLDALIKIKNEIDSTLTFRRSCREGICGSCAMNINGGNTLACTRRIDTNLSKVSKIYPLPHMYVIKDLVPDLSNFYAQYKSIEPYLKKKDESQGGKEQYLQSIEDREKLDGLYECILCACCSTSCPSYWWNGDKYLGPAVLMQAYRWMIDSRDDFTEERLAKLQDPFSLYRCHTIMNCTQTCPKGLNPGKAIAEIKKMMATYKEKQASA
T2 sequence (P31039 44-665 partner): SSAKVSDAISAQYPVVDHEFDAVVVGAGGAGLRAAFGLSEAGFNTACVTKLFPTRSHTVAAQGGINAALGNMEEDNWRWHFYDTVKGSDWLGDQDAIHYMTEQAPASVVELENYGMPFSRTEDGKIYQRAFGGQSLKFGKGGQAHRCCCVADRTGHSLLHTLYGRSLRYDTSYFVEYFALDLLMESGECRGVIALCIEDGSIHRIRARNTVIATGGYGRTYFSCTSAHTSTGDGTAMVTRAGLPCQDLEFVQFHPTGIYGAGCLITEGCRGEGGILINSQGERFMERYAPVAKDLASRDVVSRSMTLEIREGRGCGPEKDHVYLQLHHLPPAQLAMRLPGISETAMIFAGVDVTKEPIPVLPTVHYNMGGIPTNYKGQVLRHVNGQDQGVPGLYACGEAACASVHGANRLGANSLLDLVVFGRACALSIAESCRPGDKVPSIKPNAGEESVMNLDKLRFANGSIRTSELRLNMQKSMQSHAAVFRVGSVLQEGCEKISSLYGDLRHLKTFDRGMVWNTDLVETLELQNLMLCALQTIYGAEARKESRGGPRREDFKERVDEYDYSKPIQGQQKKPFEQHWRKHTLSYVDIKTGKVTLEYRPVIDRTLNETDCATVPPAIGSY
Chain of ferricytochrome c (P99999 whole entry): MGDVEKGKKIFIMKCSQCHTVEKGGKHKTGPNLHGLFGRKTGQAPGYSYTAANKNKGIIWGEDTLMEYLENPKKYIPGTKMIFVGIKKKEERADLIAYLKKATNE

Consider `C[P+](c1ccccc1)(c1ccccc1)c1ccccc1` [TPMP, methyltriphenylphosphonium, reference compound], for which, in the data set with rat liver mitochondria [1], the “proportion membrane-bound within mitochondria” value is “About 60%”. Moreover, in the data set on rat liver mitochondria [2] (50 μM added instead of mitoquinone), the “change in A275” value is “did not lead to changes in A275”.

On to `COc1c(O)c(C)c(CCCCCCCCCC[P+](c2ccccc2)(c2ccccc2)c2ccccc2)c(O)c1OC` [mitoquinol, 10-(6′-ubiquinolyl)decyltriphenylphosphonium bromide], for which, in data set [3] (FIG. 12 panel D, KCN present, myxathiazol 10 μM), the “inhibition of rate by myxathiazol” value was 60–70%. Besides, the “initial rate of oxidation of mitoquinol” value in data set [3] (membranes inhibited with rotenone and malonate, mean of 2 +/- range) was “about 89±9 mmol mitoquinol/min/mg protein”. Also, in data set [3] (membranes supplemented with ferricytochrome c, mean+/-range), the “initial rate of reduction of cytochrome c on addition of mitoquinol” value is “about 93+/−13 nmol/min/mg”. For the same molecule, in data set [3] (myxathiazol), the “cytochrome c reduction not blocked by myxathiazol” value was 30–40%. Also, the stability in air entry in data set [4] is recorded as “Oxidises rapidly in air”. Moreover, the “effect on mitochondrial function” value in the data set with rat liver mitochondria [5] (10 μM) was “little effect on mitochondrial function”; in the data set on rat liver mitochondria [5] (25 μM and above) it was “some uncoupling and inhibition of respiration”. For the same molecule, in the data set with rat liver mitochondria [6], the “accumulation by energised mitochondria” value was “accumulated rapidly”.

Consider `COC1=C(OC)C(=O)C(CCCCCCCCCC[P+](c2ccccc2)(c2ccccc2)c2ccccc2)=C(C)C1=O` [mitoquinone, 10-(6′-ubiquinonyl)decyltriphenylphosphonium bromide], for which the “reaction on mixing with 50 μM ferricytochrome c” value on ferricytochrome c (50 μM, A550) was “some reduction of A550”. Besides, the “reaction with succinate or NADH in the absence of mitochondrial membranes” value on ferricytochrome c (no membranes) is on record as “no reaction”. The “restoration of NADH oxidation” value in data set [7] (pentane extracted beef heart mitochondria, NADH 125 μM, 50 μM compound) is listed as “restored NADH oxidation”. The “inhibition of NADH-ferricytochrome c activity by myxathiazol” value in data set [7] (pentane extracted mitochondria, mitoquinone 50 μM) is recorded as 60–70%. The “proportion reduced by succinate” value in data set [8] (antimycin inhibited beef heart membranes, succinate 5 mM) is reported as “about 23%”. In data set [8] (equilibration with succinate/fumarate couple), the “Eh corresponding to proportion reduced” value was “about +8 mV”. The “rate of reduction of mitoquinone” value in data set [8] (rotenone inhibited membranes, succinate) was determined as 51±9.9 nmol/min/mg protein. Further, the “reduction by intact energised mitochondria” value in the data set with rat liver mitochondria [2] (rat liver mitochondria, 50 μM) is recorded as “rapidly reduced”. For the same molecule, the “decrease of rate of reduction with FCCP” value in the data set with rat liver mitochondria [2] (uncoupler FCCP present) is given as 2–3 fold.
